# Measurements: ChEMBL document CHEMBL3046344, “Phytochemical based strategies for nematode control” (2002)
# Numbered stars: 1 amine (or outer) side, 2 acyl side, 3 side chain; on linkers, the order of the positions; unused ones are H or OH. Bridge positions count the residues as written; N and C are the ends. Square brackets hold non-standard residues; d marks the D form. Peptide text beside a SMILES is read from it. NMeW = CN[C@@H](Cc1c[nH]c2ccccc12)C(=O)O; X1 = CC(C)[C@@H](C(=O)[*:1])N(C)O[*:2]; NMeI = CC[C@H](C)[C@H](NC)C(=O)O; NMeV = CN[C@H](C(=O)O)C(C)C; Sar = CNCC(=O)O
# What was measured:
# Format in all cases: functional
# [1] = tested on: Meloidogyne incognita; assay: Nematocidal activity against Meloidogyne incognita (root-knot nematode) assessed as mortality at 10 ug/ml
# [2] = tested on: Caenorhabditis elegans; assay: Nematocidal activity against Caenorhabditis elegans assessed as mortality at 50 ug/ml
# [3] = tested on: Panagrellus redivivus; assay: Nematocidal activity against Panagrellus redivivus assessed as mortality at 12.5 ug/ml
# [4] = tested on: Caenorhabditis elegans; assay: Nematocidal activity against Caenorhabditis elegans assessed as mortality; details: for LC50 / minimal effective concentration: Caenorhabditis elegans; for minimal effective concentration: read-out: MEC
# [5] = tested on: Meloidogyne incognita; assay: Nematocidal activity against Meloidogyne incognita (root-knot nematode) assessed as inhibition of penetration in tomato root at 25 ug/ml; set-up: scale not given: the % may be the effect or the level left
# [6] = tested on: Panagrellus redivivus; assay: Nematocidal activity against Panagrellus redivivus; details: read-out: ED50 (the source's name)
# [7] = tested on: Meloidogyne incognita; assay: Nematocidal activity against Meloidogyne incognita (root-knot nematode); details: read-out: LD50 (the source's name)
# [8] = tested on: Pratylenchus penetrans; assay: Nematocidal activity against Pratylenchus penetrans; details: read-out: LD50 (the source's name)
# [9] = tested on: Radopholus similis; assay: Nematocidal activity against Radopholus similis; details: read-out: LD50 (the source's name)
# [10] = tested on: Heterodera schachtii; assay: Nematocidal activity against Heterodera schachtii; details: read-out: LD50 (the source's name)
# [11] = tested on: Ditylenchus dipsaci; assay: Nematocidal activity against Ditylenchus dipsaci assessed as motility; details: read-out: ED50 (the source's name)
# [12] = tested on: Pratylenchus penetrans; assay: Nematocidal activity against Pratylenchus penetrans assessed as motility and viability
# [13] = tested on: Meloidogyne incognita; assay: Nematocidal activity against Meloidogyne incognita (root-knot nematode) in tomato assessed as reduction of infection at 50 ug/ml; set-up: scale not given: the % may be the effect or the level left
# [14] = tested on: Meloidogyne incognita; assay: Nematocidal activity against Meloidogyne incognita (root-knot nematode) assessed as motility and viability
# [15] = read-out: LD50 (the source's name)
smiles,measurement,setting,value
CCCCCCCC/C=C\C(=O)O [2-UNDECYLENIC ACID],Activity,[1],70%
"CCCCC1OC(=O)C2=C1CCC=C2 (centres undefined) [3-N-BUTYL-4,5-DIHYDROPHTHALIDE]",Activity,[2],100%
same,Activity,[3],100%
CC(=O)C#Cc1ccccc1 [4-PHENYL-3-BUTYN-2-ONE],LC50,[4]; read-out: LC50,0.3 µg/mL
C=Cc1ccc(O)cc1 [4-VINYLPHENOL],minimal effective concentration,[4],300 µg/mL
C=CCS[S+]([O-])CC=C (centres undefined) [ALLICIN],Activity,[5],50%
C[C@H]1CC[C@@H]2[C@@H](C)[C@H]3[C@H](C[C@H]4[C@@H]5CC=C6C[C@@H](O[C@@H]7O[C@H](CO)[C@H](O[C@@H]8O[C@@H](C)[C@H](O)[C@@H](O)[C@H]8O)[C@H](O)[C@@H]7O[C@@H]7O[C@@H](C)[C@@H](O)[C@@H](O)[C@H]7O)CC[C@]6(C)[C@H]5CC[C@]34C)N2C1 [ALPHA-CHACONINE],EC50,[6],85 µg/mL
Oc1ccccc1O [CATECHOL],Activity,[4],100%
C=CCc1ccc(O)cc1 [CHAVICOL],minimal effective concentration,[4],300 µg/mL
COc1c(-c2ccco2)coc(=O)c1C [CLADOBOTRIN],LC50,[7],100 µg/mL
COc1cc(CC(C)C(C)Cc2ccc(O)c(OC)c2)ccc1O (centres undefined) [DIHYDROGUAIARETIC ACID],LC50,[4]; [15],10 µg/mL
C=CCc1ccc(O)c(O)c1 [HYDROXYCHAVICOL],minimal effective concentration,[4],300 µg/mL
CCCCC/C=C\C/C=C\CCCCCCCC(=O)O [LINOLEIC ACID],LC50,[4]; [15],5 µg/mL
same,LC50,[7],50 µg/mL
CC[C@H](C)[C@H]1C(=O)NCC(=O)N(C)[C@@H](Cc2c[nH]c3ccccc23)C(=O)N[C@@H](C(C)C)C(=O)N(C)[C@@H]([C@@H](C)CC)C(=O)N(C)[C@@H](C(C)C)C(=O)ON(C)[C@@H](C(C)C)C(=O)N(C)CC(=O)N(C)[C@@H](C(C)C)C(=O)N(C)[C@@H]([C@@H](C)CC)C(=O)N(C)CC(=O)N[C@@H](C(C)C)C(=O)N1C [OMPHALOTIN A] ([Sar][NMeV][NMeI][Sar]V[NMeI]G[NMeW]V[NMeI][NMeV]; linker N-C via X1),LC50,[8],25 µg/mL
same,LC50,[9],> 75 µg/mL
same,LC50,[10],30 µg/mL
same,LC50,[7],0.75 µg/mL
COc1cc(O)cc(/C=C/c2ccccc2)c1 [PINOSYLVIN METHYL ETHER],LC50,[4]; [15],4 µg/mL
C=C(C)[C@@H]1CCC2=C[C@@H](O)[C@H](O)[C@@H](C)C2C1 (some centres undefined) [RISHITIN],EC50,[11],100 µg/mL
C=C/C=C/C#CC1=CC=C(C#CC)SS1 [THIARUBRINE C],LC50,[12],23500 µg/mL
same,Activity,[13],95%
same,LC50,[14],12400 µg/mL
C[C@H]1CC[C@]2(NC1)O[C@H]1C[C@H]3[C@@H]4CC[C@H]5C[C@@H](O[C@@H]6O[C@H](CO)[C@H](O[C@@H]7O[C@H](CO)[C@@H](O)[C@H](O[C@@H]8OC[C@@H](O)[C@H](O)[C@H]8O)[C@H]7O[C@@H]7O[C@H](CO)[C@@H](O)[C@H](O)[C@H]7O)[C@H](O)[C@H]6O)CC[C@]5(C)[C@H]4CC[C@]3(C)[C@H]1[C@@H]2C [TOMATINE],EC50,[6],50 µg/mL
